This note sets out measurements from patent publication US9981909B2 (Janssen Pharmaceutica NV, priority 2008, dated 2018).

Where a name gives a salt, the structure may show the parent alone. Some results are limits rather than exact numbers.

The target in test [1] is rat 5-HT7 receptor (Rattus norvegicus (Rat), UniProt P32305). As to the kind of experiment: r5-HT7 binding assay, competitive radioligand binding with [3H]5-CT. In short, it runs like this:
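Rat 5-HT7 binding: HEK-293 membrane fractions, [3H]5-CT displacement, radioactivity counted, Ki reported. Antagonist mode: intact r5-HT7 HEK-293 cells, test compound 10 min, then 5-CT 100 nM for 20 min, lysis, cAMP by competitive immunoassay.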

For test [2], the target named is human SERT (Homo sapiens (Human), UniProt P31645). As to the kind of experiment: human SERT binding assay with [3H]-citalopram on HEK-293 membranes. The conditions noted are these: read-out: hSERT binding Ki.
Sequence of human SERT (P31645 whole entry): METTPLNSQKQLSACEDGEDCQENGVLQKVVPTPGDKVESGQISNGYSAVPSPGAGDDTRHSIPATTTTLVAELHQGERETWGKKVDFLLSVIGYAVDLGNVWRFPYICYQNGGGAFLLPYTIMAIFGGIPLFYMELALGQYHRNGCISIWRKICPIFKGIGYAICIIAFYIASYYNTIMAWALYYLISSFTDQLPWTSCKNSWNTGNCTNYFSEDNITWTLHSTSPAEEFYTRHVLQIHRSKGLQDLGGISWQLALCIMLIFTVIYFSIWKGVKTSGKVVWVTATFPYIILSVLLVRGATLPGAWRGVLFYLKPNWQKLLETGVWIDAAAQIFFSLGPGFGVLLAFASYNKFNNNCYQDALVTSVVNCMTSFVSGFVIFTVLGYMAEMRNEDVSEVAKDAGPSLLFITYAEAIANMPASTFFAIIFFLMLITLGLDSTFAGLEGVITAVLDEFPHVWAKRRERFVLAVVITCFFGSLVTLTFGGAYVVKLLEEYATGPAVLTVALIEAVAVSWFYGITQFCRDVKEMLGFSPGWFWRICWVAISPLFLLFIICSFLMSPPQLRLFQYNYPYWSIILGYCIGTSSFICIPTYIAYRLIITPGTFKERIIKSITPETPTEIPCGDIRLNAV
The target in test [3] is h5HT2A (Homo sapiens (Human), UniProt P28223). As to the kind of experiment: h5HT2A binding.
Sequence of h5HT2A (P28223 whole entry): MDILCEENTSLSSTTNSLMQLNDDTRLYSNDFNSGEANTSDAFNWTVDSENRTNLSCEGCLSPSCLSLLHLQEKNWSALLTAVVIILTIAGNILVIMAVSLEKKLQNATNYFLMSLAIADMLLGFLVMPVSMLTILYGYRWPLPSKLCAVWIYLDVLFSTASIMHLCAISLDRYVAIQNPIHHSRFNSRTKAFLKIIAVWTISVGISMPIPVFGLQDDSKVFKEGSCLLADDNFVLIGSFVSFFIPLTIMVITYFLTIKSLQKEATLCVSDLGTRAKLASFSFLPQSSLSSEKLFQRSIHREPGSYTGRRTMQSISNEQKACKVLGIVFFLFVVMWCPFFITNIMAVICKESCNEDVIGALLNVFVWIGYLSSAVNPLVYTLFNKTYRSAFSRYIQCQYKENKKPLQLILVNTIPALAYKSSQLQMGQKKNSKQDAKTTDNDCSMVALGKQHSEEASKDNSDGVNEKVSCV
Test [4] deals with h5HT2B (Homo sapiens (Human), UniProt P41595). As to the kind of experiment: h5HT2B binding.
Sequence of h5HT2B (P41595 whole entry): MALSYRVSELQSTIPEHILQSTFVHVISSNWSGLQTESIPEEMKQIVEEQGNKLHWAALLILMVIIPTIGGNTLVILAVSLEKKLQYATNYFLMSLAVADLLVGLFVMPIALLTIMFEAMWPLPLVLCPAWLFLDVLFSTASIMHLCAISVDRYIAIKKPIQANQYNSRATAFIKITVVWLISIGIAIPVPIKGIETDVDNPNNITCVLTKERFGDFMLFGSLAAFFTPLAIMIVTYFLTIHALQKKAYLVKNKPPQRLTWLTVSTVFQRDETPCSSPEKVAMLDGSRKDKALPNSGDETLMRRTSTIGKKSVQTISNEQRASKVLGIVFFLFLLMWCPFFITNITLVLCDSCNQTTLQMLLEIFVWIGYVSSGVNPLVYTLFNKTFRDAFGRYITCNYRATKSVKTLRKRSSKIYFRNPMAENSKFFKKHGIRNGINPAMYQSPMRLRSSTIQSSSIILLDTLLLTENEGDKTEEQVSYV
Test [5] concerns the target h5HT2C (Homo sapiens (Human), UniProt P28335). As to the kind of experiment: h5HT2C binding.
In test [6] the target is r5-HT7 receptor (Rattus norvegicus (Rat), UniProt P32305). As to the kind of experiment: HitHunter cAMP assay, antagonist testing against 100 nM 5-CT. The format is cell-based. Particulars: antagonist testing, 100 nM 5-CT challenge, HEK-293 r5-HT7; read-out: R5HT7 cAMP pKb (converted). The protocol:
Receptor binding was performed using membrane fractions prepared from the HEK-293 cell line recombinantly expressing rat 5-HT7 receptors (NCBI accession NM_022938). Compound affinity for the rat 5-HT7 receptor subtype was evaluated by competitive radioligand binding assays using 5-carboxamido[^3H]tryptamine ([^3H]5-CT) (Amersham Biosciences, cat. 90000403) detection. HitHunter™ cAMP assays are in-vitro based competitive immunoassays. The assay was performed on the HEK-293 cell line stably transfected with r5-HT7 receptor. Cells were pre-incubated with test compounds for 10 minutes. For antagonist testing, the cells were then challenged with 100 nM 5-CT for 20 minutes. Cells were then lysed and cAMP measured according to manufacturers protocol (Amersham, cat. NET791250UC) or [^3H]mesulergine (Amersham, cat. TRK1041). The assay was performed on membranes prepared from HEK-293 cells stably transfected with h5-HT6. Following centrifugation, membranes were resuspended and incubated for 60 min at room temperature with 1.7 nM [^3H]LSD in the presence of increasing concentration of test compounds. Nonspecific binding was defined in the presence of 10 μM clozapine (Tocris, cat. TRK1068). Homogenized HEK-293 membranes expressing the human SERT were incubated in 50 mM Tris-HCl (pH 7.5), 120 mM NaCl, 5 mM KCl with [^3H]-citalopram (3 nM) with or without test compounds. Nonspecific binding was determined in the presence of 10 μM fluoxetine. Radioactivity readouts and Ki values were performed as previously described for r5-HT7. […] Compounds were assayed in their free form or as salts, as indicated in the Examples section above.
In general terms: Changes in cAMP serve as a functional read-out for many G protein-coupled receptors.

[7] abbreviates: rat 5-HT7 receptor, HEK-293 membranes.

Sequence of h5HT2C (P28335 33-458): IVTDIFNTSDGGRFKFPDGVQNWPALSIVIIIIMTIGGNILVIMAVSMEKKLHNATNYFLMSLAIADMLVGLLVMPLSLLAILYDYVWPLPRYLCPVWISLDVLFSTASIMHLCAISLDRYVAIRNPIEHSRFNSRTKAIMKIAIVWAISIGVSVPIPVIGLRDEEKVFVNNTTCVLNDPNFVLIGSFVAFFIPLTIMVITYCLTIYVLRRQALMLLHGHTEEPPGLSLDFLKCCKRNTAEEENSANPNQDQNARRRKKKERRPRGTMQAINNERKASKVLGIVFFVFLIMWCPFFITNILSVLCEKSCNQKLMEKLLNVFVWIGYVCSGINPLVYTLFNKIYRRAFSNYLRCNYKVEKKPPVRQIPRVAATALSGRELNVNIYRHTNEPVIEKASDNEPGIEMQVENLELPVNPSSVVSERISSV
Sequence of r5-HT7 receptor (P32305 1-435): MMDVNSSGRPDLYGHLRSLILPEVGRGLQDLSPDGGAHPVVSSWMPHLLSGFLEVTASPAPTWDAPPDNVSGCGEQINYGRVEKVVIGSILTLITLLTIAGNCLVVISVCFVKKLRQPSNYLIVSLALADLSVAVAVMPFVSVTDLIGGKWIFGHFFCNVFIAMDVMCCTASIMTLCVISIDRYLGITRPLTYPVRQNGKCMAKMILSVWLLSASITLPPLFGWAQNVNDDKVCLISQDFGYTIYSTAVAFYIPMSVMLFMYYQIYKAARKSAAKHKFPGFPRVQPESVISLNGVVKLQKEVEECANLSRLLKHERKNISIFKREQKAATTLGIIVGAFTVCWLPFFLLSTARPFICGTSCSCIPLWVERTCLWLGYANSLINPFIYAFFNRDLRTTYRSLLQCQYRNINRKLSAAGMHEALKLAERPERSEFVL
Sequence of rat 5-HT7 receptor (P32305 1-435): as above

A word on the Ki: it is a measure of affinity in units of concentration, obtained from inhibition or displacement. With `Clc1ccc(CCOc2ccc(Cl)cc2OC2CNC2)cc1` [Example 192, 3-[5-Chloro-2-[2-(4-chloro-phenyl)-ethoxy]-phenoxy]-azetidine], the Ki in test [1] (setting [7]) was 8 nM; in test [2], 88 nM; in test [3], 9 nM; in test [4], 22 nM; in test [5], 140 nM.

`CN1CC[C@@H](Oc2ccc(Cl)cc2OCc2ccccc2)C1` [Example 91, (R)-3-(2-Benzyloxy-4-chloro-phenoxy)-1-methyl-pyrrolidine]: the Ki in test [1] (setting [7]) is 500 nM; in test [3] it was 5 nM; in test [4] it was 50 nM; in test [5], 120 nM.

Take `Clc1cccc(COc2cc(Cl)ccc2O[C@H]2CCNC2)c1` [Example 94, (S)-3-[4-Chloro-2-(3-chloro-benzyloxy)-phenoxy]-pyrrolidine]: the Ki is greater than 2500 nM in test [1] (setting [7]), 32 nM in test [3], 250 nM in test [4] and 69 nM in test [5].

In the case of `COc1ccc(CCOc2ccc(Cl)cc2OC2CNC2)cc1` [Example 194, 3-[5-Chloro-2-[2-(4-methoxy-phenyl)-ethoxy]-phenoxy]-azetidine], the Ki in test [1] (setting [7]) was found to be 4 nM; in test [2], 141 nM; in test [3], 4 nM; in test [4], 195 nM; in test [5], 81 nM.

Turning to `Clc1ccc(C2(COc3ccc(Cl)cc3OC3CNC3)CCC2)cc1` [Example 188, 3-[5-Chloro-2-[1-(4-chloro-phenyl)-cyclobutylmethoxy]-phenoxy]-azetidine], the Ki was 34 nM in test [1] (setting [7]); 65 nM in test [2]; 8 nM in test [3]; 28 nM in test [4]; 143 nM in test [5].

In the case of `COC(COc1ccc(Cl)cc1OC1CNC1)c1ccccc1` (stereo not shown) [Example 168, 3-[5-Chloro-2-(2-methoxy-2-phenyl-ethoxy)-phenoxy]-azetidine], the Ki in test [1] (setting [7]) came out at 130 nM; in test [3], 8 nM; in test [4], 21 nM; in test [5], 48 nM.

Consider `Clc1cccc(COc2cc(Cl)ccc2O[C@@H]2CCNC2)c1` [Example 92, (R)-3-[4-Chloro-2-(3-chloro-benzyloxy)-phenoxy]-pyrrolidine], for which the Ki in test [1] (setting [7]) amounted to 260 nM; in test [3] it was 14 nM; in test [4], 28 nM; in test [5] it was 110 nM.

For the compound `Fc1cccc(CCOc2ccc(Cl)cc2OC2CNC2)c1` [Example 191, 3-[5-Chloro-2-[2-(3-fluoro-phenyl)-ethoxy]-phenoxy]-azetidine], the Ki came to 8 nM in test [1] (setting [7]); 7 nM in test [2]; 8 nM in test [3]; 11 nM in test [4]; 53 nM in test [5].

Consider `Clc1ccc(OC2CCc3ccccc3C2)c(OC2CNC2)c1` (stereo not shown) [Example 164, 3-[5-Chloro-2-(1,2,3,4-tetrahydro-naphthalen-2-yloxy)-phenoxy]-azetidine], for which the Ki was found to be 33 nM in test [1] (setting [7]); 8 nM in test [2]; 24 nM in test [3]; 30 nM in test [4]; 181 nM in test [5].

Regarding `CN1CC[C@@H](Oc2ccc(Cl)cc2OCc2cccc(Cl)c2)C1` [Example 93, (R)-3-[4-Chloro-2-(3-chloro-benzyloxy)-phenoxy]-1-methyl-pyrrolidine], the Ki came out at 140 nM in test [1] (setting [7]), 3 nM in test [3], 13 nM in test [4] and 51 nM in test [5].

Consider `Clc1ccc(O[C@@H]2CCNC2)c(OCc2ccccc2)c1` [Example 90, (R)-3-(2-Benzyloxy-4-chloro-phenoxy)-pyrrolidine], for which the Ki was found to be 920 nM in test [1] (setting [7]), 20 nM in test [3], 83 nM in test [4] and 160 nM in test [5].

`FC(F)(F)c1ccnc(COc2ccc(Cl)cc2OC2CNC2)c1` [Example 81, 2-[2-(Azetidin-3-yloxy)-4-chloro-phenoxymethyl]-4-trifluoromethyl-pyridine]: the Ki in test [1] (setting [7]) came to 97 nM; in test [2], 1170 nM; in test [3] it was 76 nM; in test [4], 367 nM; in test [5], 590 nM.

For `CCCN1CC(Oc2cc(Br)ccc2OCc2cccc(F)c2)C1` [Example 19, 3-[5-Bromo-2-(3-fluoro-benzyloxy)-phenoxy]-1-propyl-azetidine], the Ki in test [1] (setting [7]) was determined as 4 nM; in test [2], 396 nM. For the same compound, the Kb in test [6] was 2 nM.

For `FC(F)(F)c1ccc(COc2ccc(Cl)cc2OC2CCNCC2)o1` [Example 63, 4-[5-Chloro-2-(5-trifluoromethyl-furan-2-ylmethoxy)-phenoxy]-piperidine hydrochloride], the Ki is 7 nM in test [1] (setting [7]) and 48 nM in test [2]. In test [6], the Kb was 25.1 nM.

With `Fc1ccc(CCOc2ccc(Cl)cc2OC2CNC2)cc1` [Example 193, 3-[5-Chloro-2-[2-(4-fluoro-phenyl)-ethoxy]-phenoxy]-azetidine], the Ki in test [1] (setting [7]) is 5 nM; in test [2], 9 nM; in test [3] it was 11 nM; in test [4], 14 nM; in test [5], 71 nM.

As for `Clc1cccc(Oc2ccc(Br)cc2OC2CNC2)c1` [Example 252, 3-[5-Bromo-2-(3-chloro-phenoxy)-phenoxy]-azetidine], the Ki worked out at 7 nM in test [1] (rat 5-HT7, HEK-293 membranes) and 60 nM in test [2]. Moreover, the Kb in test [6] is 63.1 nM.

`COc1cccc(CCOc2ccc(Cl)cc2OC2CNC2)c1` [Example 190, 3-[5-Chloro-2-[2-(3-methoxy-phenyl)-ethoxy]-phenoxy]-azetidine]: the Ki in test [1] (setting [7]) came out at 8 nM; in test [2], 211 nM; in test [3], 14 nM; in test [4], 69 nM; in test [5] it was 56 nM.

On to `FC(F)(F)c1ccc2c(c1)C(Oc1ccc(Br)cc1OC1CNC1)CC2` (racemic) [Example 157, (±)-3-[5-Bromo-2-(6-trifluoromethyl-indan-1-yloxy)-phenoxy]-azetidine], for which the Ki in test [1] (setting [7]) worked out at 10 nM; in test [2] it was 181 nM. Moreover, the Kb in test [6] is 5.01 nM.

For `COc1cccc(COc2ccc(Cl)cc2OC2CNC2)c1` [Example 33, 3-[5-Chloro-2-(3-methoxy-benzyloxy)-phenoxy]-azetidine], the Ki turned out to be 7 nM in test [1] (setting [7]) and 8 nM in test [2]. Besides, in test [6], the Kb is 15.8 nM.

Take `Fc1ccc2c(c1)CCC2Oc1ccc(Br)cc1OC1CNC1` (racemic) [Example 154, (±)-3-[5-Bromo-2-(5-fluoro-indan-1-yloxy)-phenoxy]-azetidine]: the Ki in test [1] (setting [7]) turned out to be 18 nM; in test [2], 13 nM. Further, the Kb in test [6] is 20 nM.

Turning to `Clc1ccc(OC2CCCc3ccccc32)c(OC2CNC2)c1` (stereo not shown) [Example 161, 3-[5-Chloro-2-(1,2,3,4-tetrahydro-naphthalen-1-yloxy)-phenoxy]-azetidine], the Ki was determined as 28 nM in test [1] (setting [7]) and 60 nM in test [2]. In test [6], the Kb is 15.8 nM.

As to `COc1ccc(COc2ccc(Br)cc2OC2CNC2)cc1Cl` [Example 13, 3-[5-Bromo-2-(3-chloro-4-methoxy-benzyloxy)-phenoxy]-azetidine], the inhibition constant Ki in test [1] (setting [7]) amounted to 4 nM; in test [2] it was 6 nM. For the same compound, the Kb in test [6] was 3.98 nM.

As to `ON=C(COc1ccc(Cl)cc1OC1CNC1)c1ccccc1` [Example 181, 2-[2-(Azetidin-3-yloxy)-4-chloro-phenoxy]-1-phenyl-ethanone oxime], the Ki stood at 19 nM in test [1] (setting [7]) and 967 nM in test [2]. Further, in test [6], the Kb was 20 nM.

Consider `Brc1ccc(OCc2ccccc2)c(OC2CNC2)c1` [Example 1, 3-(2-Benzyloxy-5-bromo-phenoxy)-azetidine], for which the figures for the Ki in test [1] (setting [7]) and in test [2] were 9 nM and 48 nM, respectively. Also, the Kb in test [6] is 12.6 nM.

For the compound `CC(Oc1ccc(Cl)cc1OC1CNC1)c1cccc(C(F)(F)F)c1` (racemic) [Example 105, (±)-3-[5-Chloro-2-[1-(3-trifluoromethyl-phenyl)-ethoxy]-phenoxy]-azetidine], the Ki in test [1] (setting [7]) is 23 nM; in test [2], 193 nM. The Kb in test [6] was 50.1 nM.

Turning to `FC(F)(F)c1cccc(COc2ccc(Cl)cc2OC2CNC2)c1` [Example 39, 3-[5-Chloro-2-(3-trifluoromethyl-benzyloxy)-phenoxy]-azetidine], the Ki in test [1] (setting [7]) was 7 nM; in test [2], 4 nM. Moreover, in test [6], the Kb is 3.16 nM.
